Reference: US20240327334A1, “Covalent Inhibitors As Antiviral Agents” (Enanta Pharmaceuticals, Inc., priority 2022, published 2024)

Key:
[1] = target: SARS-CoV-2 Papain-like (PLpro) protease (Severe acute respiratory syndrome coronavirus 2, UniProt P0DTD1); assay: SARS-CoV-2 Papain-like (PLpro) protease biochemical enzyme inhibition assay (ubiquitin-fluorophore substrate, Ub-R110); conditions: Ub-R110 substrate; run in duplicate; read-out: PLpro IC50
SARS-CoV-2 replicon = assay: microbe, parasite or virus in culture; type: cell-based; conditions: Severe acute respiratory syndrome coronavirus 2, Huh-7

Row | SMILES | IC50 [1] [nM] | EC50 (SARS-CoV-2 replicon) [nM]
1 | C#CCNC(=O)C(=O)NCc1ccccc1C(=O)NC1(c2ccc(F)c(-c3cnn(C)c3)c2)CC1 [Example 232] | < 100 | < 1000
2 | Cc1nn(C)cc1-c1cc(F)cc(C2(NC(=O)c3ccccc3CNC(=O)C(=O)NCC#N)CC2)c1 [Example 233] | < 100 | > 10000
3 | C#CCNC(=O)C(=O)NCc1ccccc1C(=O)NC1(c2cc(F)cc(-c3cn(C)nc3C)c2)CC1 [Example 234] | < 100 | < 1000
4 | Cn1cc(-c2cc(F)cc(C3(NC(=O)c4ccccc4CNC(=O)C(=O)NCC#N)CC3)c2)cn1 [Example 235] | < 100 | > 10000
5 | Cc1nn(C)cc1-c1cc(C2(NC(=O)c3ccccc3CNC(=O)C(=O)NCC#N)CC2)ccc1F [Example 236] | 100 to 1000 | > 10000
6 | C#CCNC(=O)C(=O)NCc1ccccc1C(=O)NC1(c2ccc(F)c(-c3cn(C)nc3C)c2)CC1 [Example 237] | < 100 | < 1000
7 | C#CCNC(=O)C(=O)NCc1ccccc1C(=O)NC1(c2cc(F)cc(-c3cnn(C)c3)c2)CC1 [Example 238] | < 100 | < 1000
8 | N#CCNC(=O)C(=O)NCc1ccccc1C(=O)NC1(c2cc(F)c(F)c(-c3cccs3)c2)CC1 [Example 239] | < 100 | > 10000
9 | N#CCNC(=O)C(=O)NCc1ccccc1C(=O)NC1(c2cc(F)c(F)c(-c3cnn(C4CC4)c3)c2)CC1 [Example 240] | < 100 | > 10000
10 | C#CCNC(=O)C(=O)NCc1ccccc1C(=O)NC1(c2cc(F)c(F)c(-c3cccs3)c2)CC1 [Example 241] | < 100 | 1000 to 10000
11 | C#CCNC(=O)C(=O)NCc1ccccc1C(=O)NC1(c2cc(F)c(F)c(-c3cnn(C4CC4)c3)c2)CC1 [Example 242] | < 100 | < 1000
12 | O=C(NCC#Cc1nccs1)C(=O)NCc1ccccc1C(=O)NC1(c2cc(F)cc(-c3cnn(C4CC4)c3)c2)CC1 [Example 243] | < 100 | < 1000
13 | C#CCNC(=O)C(=O)NCc1ccccc1C(=O)NC1(c2cc(OC)cc(-c3cnn(C4CC4)c3)c2)CC1 [Example 244] | < 100 | < 1000
14 | C#CCNC(=O)C(=O)NCc1ccccc1C(=O)NC1(c2ccc(OC)c(-c3cnn(C4CC4)c3)c2)CC1 [Example 245] | < 100 | < 1000
15 | COc1cc(-c2cnn(C3CC3)c2)cc(C2(NC(=O)c3ccccc3CNC(=O)C(=O)NCC#Cc3nccs3)CC2)c1 [Example 246] | < 100 | < 1000
16 | COc1ccc(C2(NC(=O)c3ccccc3CNC(=O)C(=O)NCC#Cc3nccs3)CC2)cc1-c1cnn(C2CC2)c1 [Example 247] | < 100 | < 1000
17 | O=C(NCC#Cc1ncc(F)cn1)C(=O)NCc1ccccc1C(=O)NC1(c2cc(F)cc(-c3cnn(C4CC4)c3)c2)CC1 [Example 248] | < 100 | < 1000
18 | O=C(NCC#Cc1ncc(F)s1)C(=O)NCc1ccccc1C(=O)NC1(c2cc(F)cc(-c3cnn(C4CC4)c3)c2)CC1 [Example 249] | < 100 | < 1000
19 | CN(C)CCn1cc(-c2cc(F)cc(C3(NC(=O)c4ccccc4CNC(=O)C(=O)NCC#Cc4ccccn4)CC3)c2)cn1 [Example 250] | < 100 | < 1000
20 | CN(C)CCn1cc(-c2cc(F)cc(C3(NC(=O)c4ccccc4CNC(=O)C(=O)NCC#Cc4nccs4)CC3)c2)cn1 [Example 251] | < 100 | < 1000
21 | O=C(NCC#Cc1ccccn1)C(=O)NCc1ccccc1C(=O)NC1(c2cc(F)cc(-c3cnn(C4CC4)c3)c2)CC1 [Example 252] | < 100 | < 1000
22 | O=C(NCC#Cc1nccs1)C(=O)NCc1ccccc1C(=O)NC1(c2cc(F)cc(-c3cnn(C4COC4)c3)c2)CC1 [Example 253] | < 100 | < 1000
23 | C[C@@H](C#Cc1nccs1)NC(=O)C(=O)NCc1ccccc1C(=O)NC1(c2cc(F)cc(-c3cnn(C4COC4)c3)c2)CC1 [Example 254] | < 100 | < 1000
24 | CN1CCC(n2cc(-c3cc(F)cc(C4(NC(=O)c5ccccc5CNC(=O)C(=O)NCC#Cc5nccs5)CC4)c3)cn2)CC1 [Example 255] | < 100 | < 1000
25 | CN1CCC(n2cc(-c3cc(F)cc(C4(NC(=O)c5ccccc5CNC(=O)C(=O)NCC#Cc5ncco5)CC4)c3)cn2)CC1 [Example 257] | < 100 | < 1000

Row | SMILES | IC50 [1] [nM] | EC50 (SARS-CoV-2 replicon) [nM]
26 | COc1cccnc1C#CCNC(=O)C(=O)NCc1ccccc1C(=O)NC1(c2cc(F)cc(-c3cn(C)nc3C)c2)CC1 [Example 258] | < 100 | < 1000
27 | Cc1nn(C)cc1-c1cc(F)cc(C2(NC(=O)c3ccccc3CNC(=O)C(=O)NCC#Cc3ncccc3Cl)CC2)c1 [Example 259] | < 100 | < 1000
28 | Cc1cccnc1C#CCNC(=O)C(=O)NCc1ccccc1C(=O)NC1(c2cc(F)cc(-c3cn(C)nc3C)c2)CC1 [Example 260] | < 100 | < 1000
29 | COc1cccnc1C#CCNC(=O)C(=O)NCc1ccccc1C(=O)NC1(c2cc(F)cc(-c3cnn(C4CC4)c3)c2)CC1 [Example 261] | < 100 | < 1000
30 | Cc1cccnc1C#CCNC(=O)C(=O)NCc1ccccc1C(=O)NC1(c2cc(F)cc(-c3cnn(C4CC4)c3)c2)CC1 [Example 262] | < 100 | < 1000
31 | O=C(NCC#Cc1ncccc1Cl)C(=O)NCc1ccccc1C(=O)NC1(c2cc(F)cc(-c3cnn(C4CC4)c3)c2)CC1 [Example 263] | < 100 | < 1000
32 | C[C@@H](C#Cc1ncccc1Cl)NC(=O)C(=O)NCc1ccccc1C(=O)NC1(c2cc(F)cc(-c3cnn(C4CC4)c3)c2)CC1 [Example 264] | < 100 | < 1000
33 | COc1cccnc1C#C[C@H](C)NC(=O)C(=O)NCc1ccccc1C(=O)NC1(c2cc(F)cc(-c3cnn(C4CC4)c3)c2)CC1 [Example 265] | < 100 | < 1000
34 | Cc1cccnc1C#C[C@H](C)NC(=O)C(=O)NCc1ccccc1C(=O)NC1(c2cc(F)cc(-c3cnn(C4CC4)c3)c2)CC1 [Example 266] | < 100 | < 1000
35 | CC(C)Oc1cccnc1C#CCNC(=O)C(=O)NCc1ccccc1C(=O)NC1(c2cc(F)cc(-c3cnn(C4CC4)c3)c2)CC1 [Example 267] | < 100 | < 1000
36 | Cn1cc2cc(C3(NC(=O)c4ccccc4CNC(=O)C(=O)NCC#Cc4ncccc4Cl)CC3)ccc2n1 [Example 269] | < 100 | < 1000
37 | COc1cccnc1C#CCNC(=O)C(=O)NCc1ccccc1C(=O)NC1(c2ccc3nn(C)cc3c2)CC1 [Example 270] | < 100 | < 1000
38 | Cc1cccnc1C#CCNC(=O)C(=O)NCc1ccccc1C(=O)NC1(c2ccc3nn(C)cc3c2)CC1 [Example 271] | < 100 | < 1000
39 | C[C@@H](C#Cc1ncccc1Cl)NC(=O)C(=O)NCc1ccccc1C(=O)NC1(c2ccc3nn(C)cc3c2)CC1 [Example 272] | < 100 | < 1000
40 | COc1cccnc1C#C[C@H](C)NC(=O)C(=O)NCc1ccccc1C(=O)NC1(c2ccc3nn(C)cc3c2)CC1 [Example 273] | < 100 | < 1000
41 | Cc1cccnc1C#C[C@H](C)NC(=O)C(=O)NCc1ccccc1C(=O)NC1(c2ccc3nn(C)cc3c2)CC1 [Example 274] | < 100 | < 1000
42 | Cc1nn(C)cc1-c1cc(F)cc(C2(NC(=O)c3ccccc3CNC(=O)C(=O)N[C@@H](C)C#Cc3ncccc3Cl)CC2)c1 [Example 275] | < 100 | < 1000
43 | CC(C)n1ncnc1C#C[C@H](C)NC(=O)C(=O)NCc1ccccc1C(=O)NC1(c2cc(F)cc(-c3cnn(C4CC4)c3)c2)CC1 [Example 276] | < 100 | < 1000
44 | CC(C)n1ccnc1C#CCNC(=O)C(=O)NCc1ccccc1C(=O)NC1(c2cc(F)cc(-c3cnn(C4CC4)c3)c2)CC1 [Example 277] | < 100 | < 1000
45 | COc1cc(C2(NC(=O)c3ccccc3CNC(=O)C(=O)N[C@@H](C)C#Cc3ncccc3Cl)CC2)cc2cn(C3CC3)nc12 [Example 279] | < 100 | < 1000
46 | C[C@@H](C#Cc1ncccc1Cl)NC(=O)C(=O)NCc1ccccc1C(=O)NC1(c2cc(F)cc(-c3cnn(CC(C)(C)O)c3)c2)CC1 [Example 280] | < 100 | < 1000
47 | CC(C)(O)Cn1cc(-c2cc(F)cc(C3(NC(=O)c4ccccc4CNC(=O)C(=O)NCC#Cc4ncccc4Cl)CC3)c2)cn1 [Example 281] | < 100 | < 1000
48 | CC(C)(O)c1cccc(-c2cc(C3(NC(=O)c4ccccc4CNC(=O)C(=O)NCC#N)CC3)c3ccccc3c2)n1 [Example 283] | < 100 | < 1000
49 | Cc1n[nH]cc1-c1cc(C2(NC(=O)c3ccccc3CNC(=O)C(=O)NCC#N)CC2)c2ccccc2c1 [Example 284] | < 100 | < 1000
